Experimental data taken from US11267791B2 (F.I.S.—FABBRICA ITALIANA SINTETICI S.P.A., priority 2018, dated 2022).
Where a name gives a salt, the structure may show the parent alone. Values belong to the molecule of their own block, whether it stands above or below them.

Assays:
[1] = cited from earlier work
[2] = Relative thermodynamic solubility in water at RT by HPLC; type: physicochemical
Description: The relative solubility of the above mentioned 4 ETP monoethanolamine salt Forms was studied in water at RT. The validity of any solubility measurement requires that the crystalline form must remain stable with respect to any phase conversion taking place during the determination of the equilibrium solubility.
This suspension was stirred 24 h at RT in order to reach the equilibrium. Then, a sample was filtered and the resulting filtrate was analysed by HPLC by duplicate. The average peak area of ETP gave a relative value of the thermodynamic solubility of each form that can be compared with each other. The solids recovered after filtration were also analysed by XRPD to check that no crystalline phase transformation occurred during the slurring.
HPLC ETP peak area in each of the different forms analysed was measured in order to establish their relative solubility. The HPLC analyses were performed by duplicate for each ETP monoethanolamine salt.

[3] = Hygroscopicity study by DVS (Dynamic Vapour Sorption); type: physicochemical; conditions: 25° C.; for humidity adsorbed (water uptake) / hygroscopicity (water uptake): at 95% RH
Description: Hygroscopicity study was determined by DVS (Dynamic Vapour Sorption) with a Q5000 TA instrument. This is a gravimetric technique that measures how much water is absorbed or desorbed by a sample at different relative humidity (RH). At each RH, the sample mass must be allowed to reach gravimetric equilibrium (or surpassed time limit) before progressing to the next humidity level. Sorption and desorption isotherms were performed at 25° C. over a range of 0-95% RH. The samples gently milled were not previously dried but they were exposed to 0% RH until a stable weight was reached before starting the DVS cycle. This equilibration step allows possible adsorbed humidity to be eliminated.

[4] = Crystalline stability of Form D1 under accelerated ICH guideline conditions, XRPD; type: physicochemical
Description: This sample was periodically analysed by XRPD in order to observe possible crystalline transformation or amorphization. Moreover, a sample of ETP monoethanolamine salt Form D1 stored on a XRPD silicon holder was exposed in a climatic chamber. It is worth noting that these stability conditions are harsher than standard stability conditions due to the high surface of exposition of the solid stored on the XRPD silicon holder. The samples were periodically analysed by XRPD to observe possible crystalline transformation.

[5] = Preliminary stability in water at RT, slurry analysed by XRPD; type: physicochemical; conditions: XRPD at 1, 3, 6 and 24 h
Description: A preliminary test stability study in water at RT of 4 ETP monoethanolamine salt Forms was performed in order to observed possible crystalline transitions. A sample of each crystalline form was slurried in water at RT and periodically analysed by XRPD (1, 3, 6 and 24 h) in order to detect possible crystalline transformation.

[6] = Stability study of Form E, atmospheric and ICH accelerated conditions, XRPD; type: physicochemical; conditions: after 1 day of exposition
Description: In the first ETP monoethanolamine salt Form E was exposed to atmospheric conditions for 1 day was unstable, and a new form very similar to Form II (ETP bisethanolamine salt) described in U.S. Pat. No. 8,372,822B2 was recovered according to XRPD analysis. In the second ETP monoethanolamine salt Form E was exposed to ICH guideline accelerated conditions (40° C./75 RH %). Under these conditions, Form E converted partially to a new unknown form.

Molecule: CC1=NN(c2ccc(C)c(C)c2)C(=O)/C1=N\Nc1cccc(-c2cccc(C(=O)O)c2)c1O [Eltrombopag olamine, Eltrombopag bisethanolamine salt]
thermally stable up to ([1]; at higher temperature endothermic reaction associated with degradation): about 125 °C
solubility in water [1]: sparingly soluble

Molecule: Eltrombopag monoethanolamine salt [Form D]
hygroscopicity in words ([3]; up to 85% RH, listed as ETP monoethanolamine salt Form D): not hygroscopic

Molecule: Eltrombopag monoethanolamine salt [Form E]
result of stability study, crystalline form by XRPD ([6]; 40° C./75 RH %, ICH accelerated): partial conversion to a new form with a main peak at 8.6° (2θ)
result of stability study, crystalline form by XRPD ([6]; atmospheric conditions): Form II+one peak at 8.6° (2θ)

Molecule: Eltrombopag monoethanolamine salt [Form H]
humidity adsorbed (water uptake) [3]: up to 1.4 % w/w
hygroscopicity (water uptake) [3]: 1.4 w/w
crystalline stability slurried in water [5]: remained stable

Other lines, results leading:

Intensity test average ([2]; average of solubility tests #1 and #2, HPLC ETP peak area): 2911
Solubility test #1 (area counts) ([2]; saturated water solution, 24 h at RT, HPLC ETP peak area): 2722 area counts
Solubility test #2 (area counts) ([2]; saturated water solution, 24 h at RT, HPLC ETP peak area, repeat): 3100 area counts
humidity adsorbed (water uptake) [3]: less than 0.2 % w/w
crystalline stability in words ([4]; 2 months study period): remained stable
period the crystalline form remains stable ([4]; T=40° C./75±5% RH (chamber 45±2° C.-75±5% RH)): at least 2 months
crystalline stability slurried in water [5]: remained stable
Molecule: CC1=NN(c2ccc(C)c(C)c2)C(=O)/C1=N\Nc1cccc(-c2cccc(C(=O)O)c2)c1O [Form D1, Eltrombopag monoethanolamine salt]

hygroscopicity (water uptake) ([3]; listed as ETP monoethanolamine salt Form H2): 0.6 w/w
Molecule: Eltrombopag monoethanolamine salt [Form H2]
